In brackets after ≈: the same amount, converted by molar mass. Each block holds one molecule with its values, some of them ahead of it.
Assays:
Experiment in all cases: ≥ marks a high value that may be exact or a test limit, other limits are often not marked, values filed in µg/mL are converted to µM
Escherichia coli BW25113 = tested on: Escherichia coli BW25113
[1] = tested on: Staphylococcus aureus ATCC BAA-1556
Pseudomonas aeruginosa = tested on: Pseudomonas aeruginosa
Staphylococcus aureus = tested on: Staphylococcus aureus
Escherichia coli B = tested on: Escherichia coli B
Bacillus subtilis 168 = tested on: Bacillus subtilis 168
Escherichia coli ML-35p = tested on: Escherichia coli ML-35p
Bacillus subtilis = tested on: Bacillus subtilis
[2] = tested on: Candida albicans ATCC 2002
[3] = tested on: Staphylococcus aureus ATCC 25923
Streptococcus mutans = tested on: Streptococcus mutans
[4] = tested on: Staphylococcus aureus ATCC 43300
[5] = tested on: Pseudomonas aeruginosa ATCC 27853
[6] = tested on: Escherichia coli ATCC 25922
[7] = tested on: Staphylococcus aureus ATCC 9144
[8] = tested on: Corynebacterium glutamicum ATCC 13032
[9] = tested on: Staphylococcus aureus ATCC 2592
[10] = tested on: Pseudomonas aeruginosa PAO1

MIC (Escherichia coli BW25113): ≥ 32 µM
Compound: CC[C@H](C)[C@H](NC(=O)[C@@H]1CCCN1C(=O)[C@@H]1CCCN1C(=O)[C@H](CCCN=C(N)N)NC(=O)[C@H](Cc1ccccc1)NC(=O)[C@@H](N)CCCN=C(N)N)C(=O)N[C@@H](CCCN=C(N)N)C(=O)N[C@@H](CCCN=C(N)N)C(=O)N1CCC[C@H]1C(=O)N1CCC[C@H]1C(=O)N[C@H](C(=O)N[C@@H](CCCN=C(N)N)C(=O)N1CCC[C@H]1C(=O)N1CCC[C@H]1C(=O)N[C@@H](Cc1c[nH]c2ccccc12)C(=O)N[C@@H](Cc1ccc(O)cc1)C(=O)N1CCC[C@H]1C(=O)O)[C@@H](C)CC [RFRPPIRRPPIRPPWYP]

MIC [1]: ≥ 100 µM
Compound: CC(C)C[C@H](NC(=O)[C@H](CC(C)C)NC(=O)[C@H](CCCCN)NC(=O)[C@H](CC(C)C)NC(=O)[C@H](CC(C)C)NC(=O)[C@H](CC(C)C)NC(=O)[C@H](CC(C)C)NC(=O)[C@H](CCCCN)NC(=O)[C@@H](N)CC(C)C)C(N)=O [LKLLLLKLL]

MIC (Escherichia coli ML-35p): 14.7 µM (≈ 37.5 µg/mL)
MIC (Bacillus subtilis): 8.6 µM (≈ 21.9 µg/mL)
MIC [2]: 12.9 µM (≈ 32.7 µg/mL)
MIC [3]: 3.69 µM (≈ 9.38 µg/mL)
Compound: CC[C@H](C)[C@H](NC(=O)[C@H](CCCCN)NC(=O)[C@H](CC(=O)O)NC(=O)[C@H](CC(C)C)NC(=O)[C@@H](NC(=O)[C@H](CC(N)=O)NC(=O)[C@H](CCC(N)=O)NC(=O)[C@@H](NC(=O)[C@H](Cc1ccccc1)NC(=O)CNC(=O)[C@H](CCCCN)NC(=O)CNC(=O)[C@H](C)NC(=O)[C@H](CC(N)=O)NC(=O)[C@H](CCCCN)NC(=O)[C@@H](NC(=O)[C@@H](NC(=O)[C@H](CCC(=O)O)NC(=O)[C@H](Cc1c[nH]c2ccccc12)NC(=O)[C@H](CC(C)C)NC(=O)[C@@H](N)CO)[C@@H](C)O)[C@@H](C)CC)[C@@H](C)CC)[C@@H](C)CC)C(=O)N[C@@H](CCCN=C(N)N)C(=O)O [SLWETIKNAGKGFIQNILDKIR]

MIC [1]: ≥ 100 µM
Compound: CC(C)C[C@H](NC(=O)[C@H](CC(C)C)NC(=O)[C@H](CC(C)C)NC(=O)[C@H](CCCCN)NC(=O)[C@H](CCCCN)NC(=O)[C@H](CC(C)C)NC(=O)[C@H](CC(C)C)NC(=O)[C@H](CC(C)C)NC(=O)[C@@H](N)CC(C)C)C(N)=O [LLLLKKLLL]

MIC (Streptococcus mutans): ≥ 40.1 µM
Compound: CC(C)C[C@H](NC(=O)[C@H](Cc1cnc[nH]1)NC(=O)[C@H](CCCCN)NC(=O)[C@H](Cc1c[nH]c2ccccc12)NC(=O)[C@H](CCCN=C(N)N)NC(=O)[C@H](CCCCN)NC(=O)[C@H](Cc1ccccc1)NC(=O)[C@H](CC(C)C)NC(=O)[C@@H](N)CCCCN)C(=O)N[C@@H](Cc1ccccc1)C(=O)N[C@@H](CCCN=C(N)N)C(=O)O [KLFKRWKHLFR]

MIC [1]: 3.12 µM (≈ 4.74 µg/mL)
Compound: CC(C)C[C@H](NC(=O)[C@H](Cc1c[nH]c2ccccc12)NC(=O)[C@H](Cc1c[nH]c2ccccc12)NC(=O)[C@H](CC(C)C)NC(=O)[C@H](Cc1c[nH]c2ccccc12)NC(=O)[C@H](Cc1c[nH]c2ccccc12)NC(=O)[C@H](CCCN=C(N)N)NC(=O)[C@H](Cc1c[nH]c2ccccc12)NC(=O)[C@@H](N)Cc1c[nH]c2ccccc12)C(N)=O [WWRWWLWWL]

MIC [1]: 3.12 µM (≈ 4.28 µg/mL)
Compound: CC(C)C[C@H](NC(=O)[C@H](Cc1c[nH]c2ccccc12)NC(=O)[C@H](CCCN=C(N)N)NC(=O)[C@H](CC(C)C)NC(=O)[C@H](Cc1c[nH]c2ccccc12)NC(=O)[C@H](CC(C)C)NC(=O)[C@H](CC(C)C)NC(=O)[C@H](Cc1c[nH]c2ccccc12)NC(=O)[C@@H](N)Cc1c[nH]c2ccccc12)C(N)=O [WWLLWLRWL]

MIC [5]: 6.3 µM (≈ 9.63 µg/mL)
MIC [6]: 6.3 µM (≈ 9.63 µg/mL)
MIC [7]: ≥ 50 µM
MIC [8]: 1.6 µM (≈ 2.44 µg/mL)
Compound: CC(C)[C@H](NC(=O)[C@H](CCCCN)NC(=O)[C@H](C)NC(=O)[C@@H](NC(=O)[C@@H](NC(=O)[C@H](CCCN=C(N)N)NC(=O)[C@H](CCCN=C(N)N)NC(=O)[C@H](Cc1c[nH]c2ccccc12)NC(=O)[C@H](Cc1c[nH]c2ccccc12)NC(=O)CN)[C@@H](C)O)C(C)C)C(=O)N[C@@H](CCCN=C(N)N)C(=O)N[C@@H](CC(N)=O)C(N)=O [GWWRRTVAKVRN]

Continued, molecule first:

Compound: CC[C@H](C)[C@H](NC(=O)[C@H](CO)NC(=O)[C@H](CC(C)C)NC(=O)[C@H](Cc1ccccc1)NC(=O)CN)C(=O)N[C@@H](CC(C)C)C(=O)N[C@@H](CCCCN)C(=O)N[C@@H](CCCCN)C(=O)N[C@H](C(=O)N[C@@H](CC(C)C)C(N)=O)C(C)C [GFLSILKKVL]
MIC (Pseudomonas aeruginosa): 59 µM (≈ 65.9 µg/mL)
MIC (Staphylococcus aureus): 10.9 µM (≈ 12.2 µg/mL)
MIC (Escherichia coli B): 9.1 µM (≈ 10.2 µg/mL)
MIC (Bacillus subtilis 168): 2.9 µM (≈ 3.24 µg/mL)

Compound: CC(C)C[C@H](NC(=O)[C@H](Cc1c[nH]c2ccccc12)NC(=O)[C@H](Cc1c[nH]c2ccccc12)NC(=O)[C@H](CC(C)C)NC(=O)[C@H](CCCN=C(N)N)NC(=O)[C@H](Cc1c[nH]c2ccccc12)NC(=O)[C@@H](N)CC(C)C)C(=O)N[C@@H](Cc1c[nH]c2ccccc12)C(=O)N[C@@H](Cc1c[nH]c2ccccc12)C(N)=O [LWRLWWLWW]
MIC [1]: 3.12 µM (≈ 4.51 µg/mL)

Compound: NC(=O)[C@H](Cc1ccccc1)NC(=O)[C@H](Cc1c[nH]c2ccccc12)NC(=O)[C@H](Cc1c[nH]c2ccccc12)NC(=O)[C@H](Cc1c[nH]c2ccccc12)NC(=O)[C@H](CCCN=C(N)N)NC(=O)[C@H](CCCN=C(N)N)NC(=O)[C@H](CCCN=C(N)N)NC(=O)CNC(=O)CNC(=O)CNC(=O)[C@H](Cc1ccccc1)NC(=O)[C@H](Cc1c[nH]c2ccccc12)NC(=O)[C@H](Cc1c[nH]c2ccccc12)NC(=O)[C@H](Cc1c[nH]c2ccccc12)NC(=O)[C@H](CCCN=C(N)N)NC(=O)[C@H](CCCN=C(N)N)NC(=O)[C@@H](N)CCCN=C(N)N [RRRWWWFGGGRRRWWWF]
MIC (Streptococcus mutans): 6.3 µM (≈ 16 µg/mL)

Compound: CC[C@H](C)[C@H](NC(=O)[C@H](Cc1c[nH]c2ccccc12)NC(=O)[C@H](CCCN=C(N)N)NC(=O)[C@H](CCCN=C(N)N)NC(=O)[C@H](Cc1c[nH]c2ccccc12)NC(=O)[C@@H](N)CCCCN)C(=O)N[C@@H](CCCN=C(N)N)C(=O)N[C@@H](CC(C)C)C(=O)N[C@@H](CC(C)C)C(N)=O [KWRRWIRLL]
MIC [1]: 25 µM (≈ 33.1 µg/mL)

Compound: CC[C@H](C)[C@H](NC(=O)CNC(=O)[C@@H](NC(=O)[C@H](C)NC(=O)[C@@H](NC(=O)[C@H](CCCCN)NC(=O)[C@@H](NC(=O)[C@@H](NC(=O)[C@@H]1CCCN1C(=O)CNC(=O)[C@H](CC(C)C)NC(=O)[C@@H](N)Cc1ccccc1)[C@@H](C)CC)[C@@H](C)CC)[C@@H](C)CC)[C@@H](C)O)C(=O)N[C@@H](CC(C)C)C(=O)N1CCC[C@H]1C(=O)N[C@H](C(=O)N[C@@H](C)C(=O)N[C@H](C(=O)N[C@H]1CSSC[C@@H](C(=O)O)NC(=O)[C@H](CCCCN)NC(=O)[C@H](CCCCN)NC(=O)[C@H](CC(C)C)NC(=O)[C@H](Cc2ccccc2)NC(=O)[C@H](CCCCN)NC1=O)[C@@H](C)CC)[C@@H](C)O [FLGPIIKIATGILPTAICKFLKKC]
MIC (Escherichia coli ML-35p): 14.5 µM (≈ 37.5 µg/mL)
MIC (Bacillus subtilis): 1.81 µM (≈ 4.69 µg/mL)
MIC [2]: 1.81 µM (≈ 4.69 µg/mL)
MIC [3]: 1.45 µM (≈ 3.75 µg/mL)
MIC [4]: 24.1 µM (≈ 62.5 µg/mL)

Compound: CC(C)C[C@H](NC(=O)[C@H](CC(C)C)NC(=O)[C@H](CC(C)C)NC(=O)[C@H](CC(C)C)NC(=O)[C@H](CCCCN)NC(=O)[C@H](CC(C)C)NC(=O)[C@H](CCCCN)NC(=O)[C@H](CC(C)C)NC(=O)[C@@H](N)CC(C)C)C(N)=O [LLKLKLLLL]
MIC [1]: ≥ 100 µM

Compound: CC(C)C[C@H](NC(=O)[C@H](Cc1c[nH]c2ccccc12)NC(=O)[C@H](CC(C)C)NC(=O)[C@H](CC(C)C)NC(=O)[C@H](Cc1c[nH]c2ccccc12)NC(=O)[C@H](Cc1c[nH]c2ccccc12)NC(=O)[C@H](CC(C)C)NC(=O)[C@H](Cc1c[nH]c2ccccc12)NC(=O)[C@@H](N)Cc1c[nH]c2ccccc12)C(N)=O [WWLWWLLWL]
MIC [1]: ≥ 100 µM

Compound: NCCCC[C@H](NC(=O)[C@H](Cc1c[nH]c2ccccc12)NC(=O)[C@H](CCCN=C(N)N)NC(=O)[C@H](Cc1c[nH]c2ccccc12)NC(=O)[C@H](CCCN=C(N)N)NC(=O)[C@H](Cc1c[nH]c2ccccc12)NC(=O)[C@@H](N)CCCN=C(N)N)C(=O)O [RWRWRWK]
MIC (Streptococcus mutans): 27.3 µM (≈ 32 µg/mL)

Compound: CSCC[C@H](NC(=O)[C@H](CO)NC(=O)[C@H](CO)NC(=O)[C@H](CC(C)C)NC(=O)[C@H](C)NC(=O)CNC(=O)[C@H](Cc1ccccc1)NC(=O)[C@H](CC(C)C)NC(=O)[C@H](CC(C)C)NC(=O)[C@@H]1CCCN1C(=O)[C@H](Cc1ccccc1)NC(=O)[C@@H](N)Cc1ccccc1)C(=O)N[C@@H](CCSC)C(=O)N1CCC[C@H]1C(=O)N[C@@H](CCCCN)C(=O)N[C@@H](CC(C)C)C(=O)N[C@@H](Cc1ccccc1)C(N)=O [FFPLLFGALSSMMPKLF]
MIC (Escherichia coli ML-35p): 15.4 µM (≈ 30 µg/mL)
MIC [5]: 1.28 µM (≈ 2.5 µg/mL)
MIC [9]: 1.28 µM (≈ 2.5 µg/mL)
MIC (Bacillus subtilis): 7.71 µM (≈ 15 µg/mL)
MIC [10]: 1.28 µM (≈ 2.5 µg/mL)
MIC [2]: 2.57 µM (≈ 5 µg/mL)
MIC [4]: 1.28 µM (≈ 2.5 µg/mL)
